Measurements: patent US6541450B1, “Parathyroid hormone analogues for the treatment of osteoporosis” (National Research Council of Canada, priority 1994, dated 2003)
“Also recorded” adds a separate entry of the source. Read-outs that look alike come from different tables or passages of the source. Where a SMILES comes first, the peptide text is derived from it. Bridges are numbered along the chain shown (N, C = ends). Where no end group is shown, it is not given here.

Assays:
[1] = molecular target: T1, adenylyl cyclase, ROS 17/2 cells (Rattus norvegicus, UniProt P25961); experiment: Adenylyl cyclase stimulation, [3H]-cyclic AMP production in ROS 17/2 cells; assay type: cell-based
T1 sequence (P25961 27-591): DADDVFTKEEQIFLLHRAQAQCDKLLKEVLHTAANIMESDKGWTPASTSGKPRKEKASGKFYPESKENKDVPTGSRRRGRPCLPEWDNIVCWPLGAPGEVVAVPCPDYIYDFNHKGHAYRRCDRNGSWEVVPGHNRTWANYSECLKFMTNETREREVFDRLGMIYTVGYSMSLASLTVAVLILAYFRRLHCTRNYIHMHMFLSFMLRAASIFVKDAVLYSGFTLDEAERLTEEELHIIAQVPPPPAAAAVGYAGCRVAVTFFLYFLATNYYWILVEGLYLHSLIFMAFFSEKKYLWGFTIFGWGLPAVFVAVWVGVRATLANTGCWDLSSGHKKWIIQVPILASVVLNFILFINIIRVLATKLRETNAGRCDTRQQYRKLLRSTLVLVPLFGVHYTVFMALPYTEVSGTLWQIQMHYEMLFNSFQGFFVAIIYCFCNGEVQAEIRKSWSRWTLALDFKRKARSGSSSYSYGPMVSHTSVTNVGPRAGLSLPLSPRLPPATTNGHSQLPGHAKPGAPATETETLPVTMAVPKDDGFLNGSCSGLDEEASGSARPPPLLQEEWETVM

[2] = tested on: ovariectomized (OVX) Sprague-Dawley rats; experiment: Anabolic activity in ovariectomized rat model, injections from 2nd to 8th week after OVX; assay type: in vivo; settings: for osteogenic activity, in words: subcutaneously injected
Text: A full description of the protocol is given in Rixon et al, J. Bone & Mineral Research 9, 1179-1189, 1994 and Whitfield et al Calcif. Tissue Int. 58, 81-87, 1996 incorporated herein by reference. Normal, Sham-OVX (ovariectomized), and OVX Sprague-Dawley rats (3 months-old; 255-260 g) were purchased from
Charles River Laboratories (St. Constant, QC). The rats were randomized into groups of 8 animals which received Purina rat chow and water ad libitum. There were no unscheduled deaths. The animals received 6, once-daily subcutaneous injections/week starting at the end of the second week after OVX, and ending at the end of the 8th week after OVX (i.e., 36 injections). Eight Sham-OVX and 8 OVX controls rats received 36 injections of vehicle (0.15 M NaCl containing 0.001N HCl) while 8 OVX rats received 0.6 nmole of fragment in vehicle/100 g of body weight). At the end of the 8th week after OVX, femurs were removed isolated, cleaned, and cut in half at mid-diaphysis and the proximal half was discarded. After removing the epiphysis, each half-femur was split lengthwise into two parts and the bone marrow was flushed out.
The bone-building potencies of the fragments were assessed from the changes in the mean thicknesses (area/perimeter) of the trabeculae in the distal half-femurs from the variously treated animals. To measure mean trabecular thickness, the two demineralized half-femurs from each rat were dehydrated and embedded in paraffin. Longitudinal, 10-μm sections from the middle plane of each bone were cut and then strained with Sanderson's rapid bone stain (Surgipath Medical Industries, Inc., Winnipeg, MB, Canada). The mean trabecular thickness was measured using a M4 imaging system and bone morphometric software from Imaging Research Inc., (St. Catherines, ON, Canada).
The results are further presented in the form of a bar graph in FIG. 7.

[3] = tested on: ovariectomized (OVX) rats with severely depleted trabecular bone; experiment: Bone restoration in OVX rats with severely depleted trabecular bone, treatment from 9 weeks after OVX; assay type: in vivo, rat; settings: 0.6 nmole/100 g once daily for 6 weeks, started 9 weeks after OVX
Text: Doses were based upon dose-response data on hPTH(1-31)-NH2. […] By the end of the 9th week they had lost about 75% of their femoral trabecular bone mass. […] The fragment could also stimulate trabecular bone growth in much older rates. […] Accordingly, the dosage of 0.6 nmole/100 g of body weight was used in further tests.
In this second example of bone restoration, the abilities of the lactam fragments to restore severely depleted trabecular bone are compared. In this experiment, the 6-week program of once-daily injections of 0.6 nmole of peptide/100 g of body weight of young sexually mature rats was delayed until the end of the 9th week after OVX. At this time, 75% of their trabecular bone had been lost.

[4] = tested on: anesthetized female Sprague-Dawley rats; experiment: Hypotensive effect, tail artery pressure in anaesthetized rats; settings: for time to reduction of tail artery pressure: injection into a femoral vein
Experimental: Female Sprague-Dawley rats (weighing over 290 g) were anaesthetized with intraperitoneally injected sodium pentobarbital (65 mg/kg body weight). Rectal temperature was monitored with a YS1402 thermistor (Yellow Springs Instrument Co., Inc. Yellow Springs, Ohio) and maintained between 36.0 and 38.5° C. throughout the experiment. Ear pinna temperature was also monitored using a YSi banjo thermistor. The tail artery was exposed to cannulated with a Jelco 25-gIV catheter (Johnson and Johnson Medical Inc., Arlington, Tex.) and connected to a Statham pressure transducer, the signals from which were recorded digitally with a Biopac Systems MP100 Monitor (Harvard Instruments, Saint Laurent, QC, Canada). For intravenous injection of PTH or one of its fragments, a femoral vein was also exposed. After surgery, the rat was allowed to stabilize for 8 min after which PTH or one of its fragments (dissolved in acidified saline containing 0.001 N HCl) was injected into the femoral vein or under the skin of the abdomen. Data were collected for 12 min after intravenous injection or for 22 min after subcutaneous injection.

[5] = molecular target: T1, adenylyl cyclase, ROS 17/2 cells; settings: previously reported, cited from earlier work
PTH receptor [6] = molecular target: T2, PTH receptor (rat (ROS 17/2 rat osteosarcoma cell …, UniProt P25961)); experiment: cell-based or functional assay
PTH receptor [7] = molecular target: T2, PTH receptor; experiment: cell-based or functional assay; remark: listed apart in the source
[8] = ROS cell line, read-out: EC50, AC-stimulating activity
[9] = intravenous, 0.8 nmol/100 g of body weight

With `CC[C@H](C)[C@H](NC(=O)[C@H](CCC(=O)O)NC(=O)[C@H](CO)NC(=O)[C@@H](NC(=O)[C@@H](N)CO)C(C)C)C(=O)N[C@@H](CCC(N)=O)C(=O)N[C@@H](CC(C)C)C(=O)N[C@@H](CCSC)C(=O)N[C@@H](Cc1c[nH]cn1)C(=O)N[C@@H](CC(N)=O)C(=O)N[C@@H](CC(C)C)C(=O)NCC(=O)N[C@@H](CCCCN)C(=O)N[C@@H](Cc1c[nH]cn1)C(=O)N[C@@H](CC(C)C)C(=O)N[C@@H](CC(N)=O)C(=O)N[C@@H](CO)C(=O)N[C@@H](CCSC)C(=O)N[C@@H](CCC(=O)O)C(=O)N[C@@H](CCCNC(=N)N)C(=O)N[C@H](C(=O)N[C@H]1CCC(=O)NCCCC[C@@H](C(=O)N[C@@H](CC(C)C)C(=O)N[C@@H](CC(C)C)C(=O)N[C@@H](CCC(N)=O)C(=O)N[C@@H](CC(=O)O)C(=O)N[C@H](C(N)=O)C(C)C)NC(=O)[C@H](CCCNC(=N)N)NC(=O)[C@H](CC(C)C)NC(=O)[C@H](Cc2c[nH]c3ccccc23)NC1=O)C(C)C` [peptide 3, [Leu^27]cyclo(Glu^22-Lys^26)-hPTH-(1-31)-NH2] (H-SVSEIQLMHNLGKHLNSMERVEWLRKLLQDV-NH2; lactam 22-26; N-terminus assumed) the “increase in activity (AC) of cyclization plus Leu27 versus native sequence 1” value ([1]; ROS cell line) was about 6 fold, the “trabecular thickness (bone-building potency)” value ([2]; 0.6 nmole/100 g s.c., 36 injections, weeks 2-8 after OVX) was “especially superior activity compared to the linear analogue” and the trabecular bone volume ([3]; listed as (Leu^27)cyclo(Glu^22-Lys^26)-hPTH-(1-31)NH2) was “restored the trabecular bone volume to the values in normal control rats”. For the same molecule, the trabecular bone volume ([3]; listed as (Leu^27)cyclo(Glu^22-Lys^26)hPTH-(1-31)-NH2) was “most effective of the fragments, restoring the bones to the values in normal control rats”, the “hypotensive action, in words” value ([4]; subcutaneous injection) was “enhanced hypotensive effects” and the “time for tail artery pressure to fall to its minimum” value (from here on “time for tail artery pressure”) ([4]; subcutaneous injection) was “much shorter time”.

For `CC[C@H](C)[C@H](NC(=O)[C@H](CCC(=O)O)NC(=O)[C@H](CO)NC(=O)[C@@H](NC(=O)[C@@H](N)CO)C(C)C)C(=O)N[C@@H](CCC(N)=O)C(=O)N[C@@H](CC(C)C)C(=O)N[C@@H](CCSC)C(=O)N[C@@H](Cc1c[nH]cn1)C(=O)N[C@@H](CC(N)=O)C(=O)N[C@@H](CC(C)C)C(=O)NCC(=O)N[C@@H](CCCCN)C(=O)N[C@@H](Cc1c[nH]cn1)C(=O)N[C@@H](CC(C)C)C(=O)N[C@@H](CC(N)=O)C(=O)N[C@@H](CO)C(=O)N[C@@H](CCSC)C(=O)N[C@@H](CCC(=O)O)C(=O)N[C@@H](CCCN=C(N)N)C(=O)N[C@H](C(=O)N[C@@H](CCC(=O)O)C(=O)N[C@@H](Cc1c[nH]c2ccccc12)C(=O)N[C@@H](CC(C)C)C(=O)N[C@@H](CCCN=C(N)N)C(=O)N[C@@H](CCCCN)C(=O)N[C@@H](CCCCN)C(=O)N[C@@H](CC(C)C)C(=O)N[C@@H](CCC(N)=O)C(=O)N[C@@H](CC(=O)O)C(N)=O)C(C)C` [peptide 6, hPTH-(1-30)-NH2] (H-SVSEIQLMHNLGKHLNSMERVEWLRKKLQD-NH2), the EC50 [1, 8] is listed as 20 nM, the EC50 [5, 8] is listed as 20 nM and the “rate of transport of subcutaneously injected peptide to the vascular system” value ([4]; subcutaneous, 0.8 nmol/100 g of body weight) is listed as “significantly (p<0.05) reduced rates of transport”.

In the case of `CC[C@H](C)[C@H](NC(=O)[C@H](CCC(=O)O)NC(=O)[C@H](CO)NC(=O)[C@@H](NC(=O)[C@@H](N)CO)C(C)C)C(=O)N[C@@H](CCC(N)=O)C(=O)N[C@@H](CC(C)C)C(=O)N[C@@H](CCSC)C(=O)N[C@@H](Cc1c[nH]cn1)C(=O)N[C@@H](CC(N)=O)C(=O)N[C@@H](CC(C)C)C(=O)NCC(=O)N[C@@H](CCCCN)C(=O)N[C@@H](Cc1c[nH]cn1)C(=O)N[C@@H](CC(C)C)C(=O)N[C@@H](CC(N)=O)C(=O)N[C@@H](CO)C(=O)N[C@@H](CCSC)C(=O)N[C@@H](CCC(=O)O)C(=O)N[C@@H](CCCNC(=N)N)C(=O)N[C@H](C(=O)N[C@@H](CCC(=O)O)C(=O)N[C@@H](Cc1c[nH]c2ccccc12)C(=O)N[C@@H](CC(C)C)C(=O)N[C@@H](CCCNC(=N)N)C(=O)N[C@@H](CCCCN)C(=O)N[C@@H](CCCCN)C(=O)N[C@@H](CC(C)C)C(=O)N[C@@H](CCC(N)=O)C(=O)N[C@@H](CC(=O)O)C(N)=O)C(C)C` [peptide 6, hPTH-(1-30)-NH2] (H-SVSEIQLMHNLGKHLNSMERVEWLRKKLQD-NH2), the “AC-stimulating activity, comparison in words” value [1] is reported as “stimulates AC almost as strongly as hPTH-(1-31)-NH and hPTH-(1-34)”, the “osteogenic activity, in words” value [2] is reported as “does not stimulate bone formation” and the “time to reduction of tail artery pressure” value [4] is reported as “about 1 minute”. For the same molecule, the “hypotensive action, in words” value ([4]; intravenous injection) was “potently hypotensive”, the “hypotensive action, in words” value ([4]; subcutaneous injection) was “reduces blood pressure as much as hPTH-(1-31)-NH2” and the “time for tail artery pressure” value ([4]; subcutaneous injection) was 13.8 ± 2.3 min. The “total blood pressure drop versus other analogues” value ([4]; subcutaneously or intravenously, 0.8 nmol/100 g of body weight) was “not significantly different (p>0.05)”.

In the case of “[Leu^27]-hPTH-(1-34)-NH2 (SVSEIQLMHNLGKHLNSMERVEWLRKLLQDVHNF-NH2; not fully specified (bridges); UniProt P01270 32-65, looked up, variant K27L) [reference compound]”, the “AC activity in the ROS cell line, comparison in words” value [5] is given as “more active in stimulating AC activity in the ROS cell line than hPTH-(1-34)-NH2”.

B1: cyclo(Lys^27-Asp^30)-hPTH-(1-31)-NH2 (peptide)
peptide: SVSEIQLMHNLGKHLNSMERVEWLRKKLQDV-NH2
modifications: lactam 27-30
With B1 the “Adenylyl Cyclase (EC50)” value (PTH receptor [6]) was 40 nM and the “adenylyl cyclase stimulation, EC50” value (PTH receptor [7]) was 40.3 nM.

B2: [Leu^27]cyclo(Glu^22-Lys^26)-hPTH-(1-31)-NH2 (peptide)
peptide: SVSEIQLMHNLGKHLNSMERVEWLRKLLQDV-NH2
modifications: lactam 22-26; N-terminus assumed
SMILES: CC[C@H](C)[C@H](NC(=O)[C@H](CCC(=O)O)NC(=O)[C@H](CO)NC(=O)[C@@H](NC(=O)[C@@H](N)CO)C(C)C)C(=O)N[C@@H](CCC(N)=O)C(=O)N[C@@H](CC(C)C)C(=O)N[C@@H](CCSC)C(=O)N[C@@H](Cc1c[nH]cn1)C(=O)N[C@@H](CC(N)=O)C(=O)N[C@@H](CC(C)C)C(=O)NCC(=O)N[C@@H](CCCCN)C(=O)N[C@@H](Cc1c[nH]cn1)C(=O)N[C@@H](CC(C)C)C(=O)N[C@@H](CC(N)=O)C(=O)N[C@@H](CO)C(=O)N[C@@H](CCSC)C(=O)N[C@@H](CCC(=O)O)C(=O)N[C@@H](CCCNC(=N)N)C(=O)N[C@H](C(=O)N[C@H]1CCC(=O)NCCCC[C@@H](C(=O)N[C@@H](CC(C)C)C(=O)N[C@@H](CC(C)C)C(=O)N[C@@H](CCC(N)=O)C(=O)N[C@@H](CC(=O)O)C(=O)N[C@H](C(N)=O)C(C)C)NC(=O)[C@H](CCCNC(=N)N)NC(=O)[C@H](CC(C)C)NC(=O)[C@H](Cc2c[nH]c3ccccc23)NC1=O)C(C)C
In the case of B2, the “Adenylyl Cyclase (EC50)” value (PTH receptor [6]) is reported as 3 nM and the “AC-stimulating activity, EC50” value (PTH receptor [7]) is reported as 3.3 nM.

B3: hPTH-(1-84) (protein, UniProt P01270 32-115, looked up)
Parathyroid hormone: SVSEIQLMHNLGKHLNSMERVEWLRKKLQDVHNFVALGAPLAPRDAGSQRPRKKEDNVLVESHEKSLGEADKADVNVLTKAKSQ
modifications: Parathyroid hormone
notes: full-length human parathyroid hormone, AC/PLC-stimulating
In the case of B3, the “osteogenic activity, in words” value [2] is reported as “equally osteogenic; also recorded: strongly osteogenic”, the “time to reduction of tail artery pressure” value [4] is reported as “about 1 minute” and the “hypotensive action, in words” value ([4]; intravenous injection) is reported as “no significant difference”. The “reduction of tail artery pressure” value [4, 9] was 43.2±5.8 mm Hg, the “time to maximum drop in tail artery pressure” value [4, 9] was 0.9 ± 0.08 min and the “time for tail artery pressure” value ([4]; subcutaneous injection) was “needs the same amount of time to reduce the blood pressure”.
